Results reported in the supplement of paper PMC4862054.
“And” between values parts separate entries of the source, which are not always exact repeats. Equal entries are not always repeated.

What was measured:
Conditions in all cases: incubation time: 72 h
CAL-51 = experiment: drug sensitivity score (DSS), CellTiter-Blue viability (DSS (AUC-based score)); higher = stronger viability inhibition; extreme values may be limits of the assay
Method: (§1)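 DSRT with the CellTiter-Blue (resazurin reduction) viability readout, fluorescence 560/590 nm, 72 h incubation. Plates were normalised to DMSO and benzethonium chloride controls. DSS is computed from the area under the fitted dose-response curve (5 or 9 concentrations).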

DU-4475 [1] = experiment: as above
Method: as §1

MDA-MB-453 = experiment: as above
Method: as §1

CAL-148 [2] = experiment: as above
Method: as §1

MDA-MB-468 [3] = experiment: as above
Method: as §1

HDQ-P1 = experiment: as above
Method: as §1

CAL-85-1 = experiment: as above
Method: as §1

BT-474 = experiment: as above
Method: as §1

SK-BR-3 [4] = experiment: as above
Method: as §1

BT-549 [5] = experiment: as above
Method: as §1

Hs578T = experiment: as above
Method: as §1

MDA-MB-436 [6] = experiment: as above
Method: as §1

HCC1143 [7] = experiment: as above
Method: as §1

HCC1599 [8] = experiment: normalised viability (% of control), CellTiter-Blue; higher = more viable cells (about 100 = DMSO control)
Method: (§2)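 DSRT, CellTiter-Blue viability, 72 h incubation. Signal is normalised to DMSO and benzethonium chloride controls. Value is the normalised response at dose 3.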

DU-4475 [9] = experiment: as above
Method: as §2

CAL-148 [10] = experiment: as above
Method: as §2

MDA-MB-468 [11] = experiment: as above
Method: as §2

HCC1937 [12] = experiment: as above
Method: as §2

MFM-223 [13] = experiment: as above
Method: as §2

SK-BR-3 [14] = experiment: as above
Method: as §2

BT-549 [15] = experiment: as above
Method: as §2

MDA-MB-436 [16] = experiment: as above
Method: as §2

HCC1143 [17] = experiment: as above
Method: as §2

CAL-120 = experiment: drug sensitivity score (DSS), CellTiter-Blue viability (DSS (AUC-based score)); higher = stronger viability inhibition; extreme values may be limits of the assay
Method: as §1

HCC1599 [18] = experiment: as above
Method: as §1

MDA-MB-231 = experiment: as above
Method: as §1

HCC1937 [19] = experiment: as above
Method: as §1

MFM-223 [20] = experiment: as above
Method: as §1

SMILES | drug sensitivity score (CAL-51) | drug sensitivity score (DU-4475 [1]) | drug sensitivity score (MDA-MB-453) | drug sensitivity score (CAL-148 [2]) | drug sensitivity score (MDA-MB-468 [3]) | drug sensitivity score (HDQ-P1) | drug sensitivity score (CAL-85-1) | drug sensitivity score (BT-474) | drug sensitivity score (SK-BR-3 [4]) | drug sensitivity score (BT-549 [5]) | drug sensitivity score (Hs578T) | drug sensitivity score (MDA-MB-436 [6]) | drug sensitivity score (HCC1143 [7]) | normalised viability (HCC1599 [8]; 100 nM) | normalised viability (DU-4475 [9]; 10 nM) | normalised viability (CAL-148 [10]; 10 nM) | normalised viability (MDA-MB-468 [11]; 100 nM) | normalised viability (HCC1937 [12]; 100 nM) | normalised viability (MFM-223 [13]; 100 nM) | normalised viability (SK-BR-3 [14]; 100 nM) | normalised viability (BT-549 [15]; 100 nM) | normalised viability (MDA-MB-436 [16]; 100 nM) | normalised viability (HCC1143 [17]; 100 nM) | drug sensitivity score (CAL-120) | drug sensitivity score (HCC1599 [18]) | drug sensitivity score (MDA-MB-231) | drug sensitivity score (HCC1937 [19]) | drug sensitivity score (MFM-223 [20]) | normalised viability (HCC1599 [8]; 10 nM) | normalised viability (DU-4475 [9]; 1 nM) | normalised viability (CAL-148 [10]; 1 nM) | normalised viability (MDA-MB-468 [11]; 10 nM) | normalised viability (HCC1937 [12]; 10 nM) | normalised viability (MFM-223 [13]; 10 nM) | normalised viability (SK-BR-3 [14]; 10 nM) | normalised viability (BT-549 [15]; 10 nM) | normalised viability (MDA-MB-436 [16]; 10 nM) | normalised viability (HCC1143 [17]; 10 nM)
CS(=O)(=O)CCNCc1ccc(-c2ccc3ncnc(Nc4ccc(OCc5cccc(F)c5)c(Cl)c4)c3c2)o1 [Lapatinib] | 0 | 0 | 17.8 and 17 | 3.64 and 1.81 | 8.9 and 8.18 | 0 | 6.56 and 6.25 | 17.2 and 17.8 | 25.7 and 24.2 | 3.9 and 2.66 | 3.66 and 4.18 | 4.07 and 1.46 | 0 | 93.9% and 94.5% | 111% and 109% | 86% and 86.5% | 86.8% and 97.8% | 97.1% and 106% | 94% and 92.9% | 34.6% and 32.9% | 85.1% and 107% | 95.6% and 116% | 82.1% and 95.4% |  |  |  |  |  |  |  |  |  |  |  |  |  |  | 
CCOc1cc2ncc(C#N)c(Nc3ccc(OCc4ccccn4)c(Cl)c3)c2cc1NC(=O)/C=C/CN(C)C [Neratinib] | 0 | 0 | 4.42 | 0 | 0 | 0 | 0 | 0 | 0 | 0 | 0 | 0 | 0 |  |  |  |  |  |  |  |  |  |  | 0 | 0 | 0 | 0 | 0 | 99.7% | 97.7% | 93.5% | 107% | 106% | 87.9% | 69.9% | 101% | 117% | 89.1%
COC(=O)C[C@](O)(CCCC(C)(C)O)C(=O)O[C@@H]1C(OC)=C[C@]23CCCN2CCc2cc4c(cc2[C@H]13)OCO4 [Omacetaxine] | 30.7 | 38.1 | 28.2 | 31.6 | 28.5 | 30.7 | 31.8 | 20.5 | 28.3 | 28.3 | 28.8 | 26.7 | 24.5 |  |  |  |  |  |  |  |  |  |  | 28.6 | 24.8 | 27.8 | 31.8 | 26.3 |  |  |  |  |  |  |  |  |  | 
COC1=C2C[C@@H](C)C[C@H](OC)[C@H](O)[C@@H](C)/C=C(\C)[C@H](OC(N)=O)[C@@H](OC)/C=C\C=C(/C)C(=O)NC(=CC1=O)C2=O [Geldanamycin] | 14.4 | 22.5 | 23 | 18.2 | 24.1 | 20.1 | 16.6 | 22.7 | 25.2 | 23.4 | 19.2 | 25 | 20.4 | 83.9% | 119% | 104% | 33.8% | 31.3% | 50.6% | 22.8% | 39.3% | 20% | 44.3% | 25.7 | 14.7 | 24.2 | 21.8 | 21.8 |  |  |  |  |  |  |  |  |  | 
CC(C)(C)c1cc(NC(=O)Nc2ccc(-c3cn4c(n3)sc3cc(OCCN5CCOCC5)ccc34)cc2)no1 [Quizartinib] | 0 | 0 | 0 | 0 | 0 | 0 | 0 | 0 | 0 | 3.75 | 0 | 0 | 0 |  |  |  |  |  |  |  |  |  |  | 0 | 0.62 | 0 | 0 | 0 | 116% | 109% | 100% | 104% | 81.7% | 86% | 91% | 101% | 110% | 95.2%
Cn1c(=O)c(F)c(Nc2ccc(I)cc2F)c2c(=O)n(C[C@@H](O)CO)cnc21 [TAK-733] | 3.52 | 29.3 | 3.27 | 0 | 0 | 3.87 | 7.69 | 0 | 0 | 0 | 1.73 | 0 | 8.4 |  |  |  |  |  |  |  |  |  |  | 4.61 | 0 | 18.1 | 0 | 5.03 | 86.2% | 98% | 92.6% | 91.5% | 100% | 80.3% | 99.4% | 97.4% | 100% | 77%
